# Reference: US11952603B2, “Method for reducing or inactivating viral and microbial content in the processes for the manufacture of pancreatin” (SCIENTIFIC PROTEIN LABORATORIES, LLC, priority 2015, dated 2024)
# Read-outs that look alike come from different tables or passages of the source.
# How the values were obtained:
# [1] = tested on: aerobic microorganisms (TAMC); experiment: Total Aerobic Microbial Count (TAMC) of porcine pancreas glands after PAA treatment
# Description: For the preparation of pancreatin, 3 kg thawed whole porcine pancreas glands and 3 kg of porcine pancreas glands cut into approximately 2-inch strips were submerged in two different concentrations of PAA, 500 ppm and 2000 ppm for 10 and 15 minutes at room temperature (18-22° C.). Treated glands were rinsed with process water and placed into a sterile sample bag and stored at −20° C. for freezing not less than 12 hours. A total of 6 samples were tested per run. The preparation was executed 2 times. […] Whole gland (A)—500 ppm; • 2. Whole gland (B)—2000 ppm; • 3. Strip gland (A)—500 ppm; • 4. Strip gland (B)—2000 ppm; • 5. Whole gland (C)—No treatment-Control; • 6. Strip gland (C)—No treatment-Control. For all result see Tables 1 and 2.
# The strip glands remained consistent.
# For the preparation of pancreatin, 3 kg thawed whole glands and 3 kg of milled gland were submerged in two different concentrations of PAA, 500 ppm and 2000 ppm for 10 and 15 minutes at room temperature (18-22° C.). Treated glands were rinsed with purified water and placed into a sterile sample bag and stored at −20° C. for freezing not less than 12 hours. A total of 6 samples were tested per run. The preparation was executed 2 times. Milled glands were difficult to process due to slurry being formed after PAA treatment. […] Whole gland (A)—500 ppm; • 2. Whole gland (B)—2000 ppm; • 3. Milled gland (A)—500 ppm; • 4. Milled gland (B)—2000 ppm; • 5. Whole gland (C)—No treatment-Control; • 6. Milled gland (C)—No treatment-Control. For all results see table 3 and 4.
# The TAMC results for both the whole glands and milled before PAA treatments were similar with 1400 and 1100 CFU/g. After 500 ppm and 2000 ppm PAA treatment, the TAMC results for the treated whole glands were exactly the same, 10 CFU/g. The milled glands were not tested after PAA treatment. See results in table 3.
# [2] = tested on: Porcine circovirus type 2 (PCV 2); experiment: Infectious PCV-2 titer by cell based in vitro assay using PK-13 cells (Large Volume Plating, interference assay); settings: 500 and 2000 ppm, endogenous virus
# [3] = tested on: Encephalomycarditis Virus (EMC); type: cell-based, Encephalomyocarditis virus; settings: 10,000 ppm PAA
# [4] = tested on: Murine Minute Virus (MMV); experiment: Viral clearance of spiked MMV on PAA-treated glands, TCID50 endpoint assay; type: cell-based; settings: 10,000 ppm PAA, 30 min sample vs Recovery Control 0 minute
# [5] = tested on: virus; experiment: Transmission electron microscopy of gland tissue and pancreatin powder for virus; settings: 20,000 ppm PAA for 30 minutes
# Description: Electron Microscopic Study: Referring to FIGS. 4A-4D, transmission electron microscopy (TEM) and scanning electron microscopy (SEM) were performed to visualize the presence of bacteria and viruses on surface of pancreas gland tissue and pancreatin powder treated with differing concentration of PAA and were compared to non-treated (control) samples.
# Pancreas gland tissues treated with PAA and untreated samples as well as resulting pancreatin powder produced with PAA treatment were analyzed with TEM and SEM. For SEM samples were coated with an ultrathin coating of electrically conducting material, deposited on the sample by low-vacuum sputter coating evaporation. A conductive material in current coating used was gold to observe bacteria and viruses. A ZEISS LEO-1530 DSM scanning electron microscope was used to produce the images of FIGS. 4A and 4B. […] (scale bar is 2 μm). […] Viruses are very small in size (15 to 100 nm) and were not possible to observe in SEM. For TEM the pancreas gland tissue and pancreatin powder sample treated with 20,000 ppm PAA for 30 minutes and control samples were stained with 2% uranyl acetate (aq). A Model H-7600 HITACHI transmission electron microscope, Version 3.01, was used to produces the images of FIGS. 4C and 4D. Three TEM slides of each treatment were observed. Each TEM slide had 400 grids to observe. A minimum of 10-15 grids per slide were observed.
# [6] = tested on: vegetative bacteria; settings: within 1 min at 25° C., 1.3 mmol/L of PAA; cited from earlier work
# [7] = tested on: Gram-positive and Gram negative bacteria, fungi and yeasts; settings: at concentrations of <100 ppm; cited from earlier work
# [8] = tested on: viruses; settings: cited from earlier work
# [9] = Strip Gland, Run # 1, Example 1
# [10] = Whole Gland, Run # 1, Example 1
# [11] = Whole Gland, Run # 2, Example 1
smiles,measurement,setting,value
"CC(=O)OO [PAA, Peracetic acid]",TAMC After Treatment at 500 ppm,[1]; [9],130 CFU/g
same,TAMC After Treatment at 2000 ppm,[1]; [9],45 CFU/g
same,TAMC After 500 ppm PAA Treatment,"[1]; Whole Gland, Example 2",10 CFU/g
same,TAMC After 2000 ppm PAA Treatment,"[1]; Whole Gland, Example 2",10 CFU/g
same,TAMC After Treatment at 500 ppm,[1]; [10],90 CFU/g
same,TAMC After Treatment at 2000 ppm,[1]; [10],50 CFU/g
same,TAMC After Treatment at 500 ppm,[1]; [11],30 CFU/g
same,TAMC After Treatment at 2000 ppm,[1]; [11],10 CFU/g
same,effect of PAA surface treatment in PCV-2 infectivity test,[2],no discernable effect
same,EMC reduction factor,[3]; at 15 minutes,about 1.75 log10
same,EMC reduction factor,[3]; calculated using the 30 min sample,about 0.8 log10
same,MMV reduction factor,[4],3.0±0.9 Log10
same,virus in pancreas gland tissue (TEM),[5],No virus was observed
same,reduction factor in the number of vegetative bacteria,[6],10^6
same,time to inactivate,[7],less than 5 minutes
same,dosage range for viruses,[8],"100-40,000 ppm"
